The subject of the assay is OPA1. Put plainly: OPA1 level in fibroblasts, Western blotting. In kind it is cell-based, human. As to conditions: FIG. 2D. Here is the method:
FIG. 2A-FIG. 2F. Miro1 Reducer Eliminates the Miro1 Defect in PD Fibroblasts. (FIG. 2A) Chemical properties of Miro1 Reducer. (FIG. 2B) Wild-type flies (w^1118) were fed with DMSO alone (0 μM Miro1 Reducer) or Miro1 Reducer in DMSO at 250 μM for 7 days, and lysed and blotted as indicated. The band intensities are normalized to those of Tubulin from the same blots. n=4. (FIG. 2C-FIG. 2E) Fibroblasts were treated, lysed, and blotted as indicated. (FIG. 2C) Band intensities are normalized to those of GAPDH from the same blots and compared to “Healthy-1, no treatment” except otherwise indicated. n=4. (FIG. 2D) Band intensities are normalized to those of ATP5β from the same blots and expressed as a percentage of the mean of “0 μM Miro1 Reducer with CCCP”. Mean±S.E.M is shown. n=3. (FIG. 2E) Band intensities are normalized to those of GAPDH from the same blots and compared to “Healthy-1, no CCCP, no MG132” except otherwise indicated. n=4. (FIG. 2F) Healthy-1 and PD-2 fibroblasts were transfected as indicated, and immunostained with anti-Myc (Miro1, green) and stained with Dapi (blue). The Miro1 intensity is normalized to that of mito-dsRed from the same cell and quantified across 37-62 cells from 5 fields each transfection, 3 independent transfections. Scale bars: 50 μm. For (FIG. 2C-FIG. 2F), both CCCP and Miro1 Reducer were dissolved in DMSO. […]

Molecules are shown by their SMILES.

As to `O=C(Nc1ccc(Nc2cc(-n3ccnc3)ncn2)cc1)Nc1cccc(F)c1` [Miro1 Reducer], the “IMM dynamin GTPase OPA1 level” value is “not reduced”.

These data come from patent US12544375B2, “Small molecule therapeutic for parkinson's disease paired with a biomarker of therapeutic activity” (The Board of Trustees of the Leland Stanford Junior …, priority 2019, dated 2026).
